According to patent US8592174B2, “Peptidase substrates” (bioMérieux, S.A., priority 2009, dated 2013):

Assays:
Test in all cases: pH variation detection on modified chromID Coli medium (Example 6)
Format in all cases: cell-based
Design in all cases: Coloration strength: key to the marks not given beside the values
Settings in all cases: 50 mg/l, 24 h 37° C.
[1] = test system: Yersinia enterocolitica 05 04 143
Description: (§1) The media were incubated for 24 hours at 37° C., then the spots formed were examined visually.

[2] = test system: Shigella boydii 00 04 212; for Coloration strength: key: +++: good growth/high coloration strength; ++: medium growth/medium coloration strength; +: weak growth/weak coloration strength; −: no growth/no coloration; for Growth: key: +++: good growth/high coloration strength; ++: medium growth/medium coloration strength; +: weak growth/weak coloration strength; −: no growth/no coloration
Description: as §1

[3] = test system: Citrobacter freundii 05 04 165
Description: as §1

[4] = test system: Raoultella ornithinolytica 05 04 140
Description: as §1

[5] = test system: Citrobacter koseri 75 08 021
Description: as §1

Hafnia alvei 05 04 201 = test system: Hafnia alvei 05 04 201
Description: as §1

[6] = test system: Morganella morganii ssp morganii 97 08 046
Description: as §1

E. coli 78 12 004 = test system: E. coli 78 12 004
Description: as §1

E. coli 05 06 052 = test system: E. coli 05 06 052
Description: as §1

[7] = test system: Escherichia vulneris 85 06 777
Description: as §1

[8] = test system: Rahnella aquatilis 05 04 103
Description: as §1

[9] = test system: Klebsiella oxytoca 05 04 175
Description: as §1

Salmonella spp 93 03 001 = test system: Salmonella spp 93 03 001; for Coloration strength: key: +++: good growth/high coloration strength; ++: medium growth/medium coloration strength; +: weak growth/weak coloration strength; −: no growth/no coloration; for Growth: key: +++: good growth/high coloration strength; ++: medium growth/medium coloration strength; +: weak growth/weak coloration strength; −: no growth/no coloration
Description: as §1

[10] = test system: Cedecea lapagei 05 04 130
Description: as §1

[11] = test system: Enterobacter intermedius 05 04 110
Description: as §1

[12] = test system: Pectobacterium carotovorum 84 06 059
Description: as §1

[13] = test system: Yersinia enterocolitica ssp enterocolitica 92 11 061
Description: as §1

[14] = test system: Escherichia hermannii 04 03 161
Description: as §1

[15] = test system: Shigella flexneri 92 11 059
Description: as §1

[16] = test system: Klebsiella pneumoniae ssp pneumoniae 73 08 012
Description: as §1

[17] = test system: Buttiauxella agrestis 05 04 166
Description: as §1

[18] = test system: Citrobacter braakii 05 06 109
Description: as §1

E. coli 05 04 163 = test system: E. coli 05 04 163
Description: as §1

Structure (SMILES): Nc1ccc(C=Cc2ccnc3ccccc23)cc1
- Color [1]: Orange
- Coloration strength [1]: ++
- Growth ([1]; control C: ++): +
- Color [2]: Orange
- Coloration strength [2]: ++
- Growth ([2]; control C: ++): ++
- Color [3]: Orange
- Coloration strength [3]: ++
- Growth ([3]; control C: ++): ++
- Color [4]: Orange
- Coloration strength [4]: ++
- Growth ([4]; control C: ++): ++
- Color [5]: Orange
- Coloration strength [5]: ++
- Growth ([5]; control C: ++): ++
- Color (Hafnia alvei 05 04 201): Orange
- Coloration strength (Hafnia alvei 05 04 201): ++
- Growth (Hafnia alvei 05 04 201; control C: ++): ++
- Color [6]: Orange
- Coloration strength [6]: ++
- Growth ([6]; control C: ++): ++
- Color (E. coli 78 12 004): Orange
- Coloration strength (E. coli 78 12 004): ++
- Growth (E. coli 78 12 004; control C: ++): ++
- Color (E. coli 05 06 052): Orange
- Coloration strength (E. coli 05 06 052): ++
- Growth (E. coli 05 06 052; control C: ++): ++
- Color [7]: Orange
- Coloration strength [7]: ++
- Growth ([7]; control C: ++): ++
- Color [8]: Orange
- Coloration strength [8]: ++
- Growth ([8]; control C: ++): ++
- Color [9]: Orange
- Coloration strength [9]: ++
- Growth ([9]; control C: ++): ++
- Color (Salmonella spp 93 03 001): Orange
- Coloration strength (Salmonella spp 93 03 001): ++
- Growth (Salmonella spp 93 03 001; control C: ++): ++
- Color [10]: Orange
- Coloration strength [10]: ++
- Growth ([10]; control C: ++): ++
- Color [11]: Orange
- Coloration strength [11]: ++
- Growth ([11]; control C: ++): +
- Color [12]: Orange
- Coloration strength [12]: ++
- Growth ([12]; control C: ++): +
- Color [13]: Orange
- Coloration strength [13]: ++
- Growth ([13]; control C: ++): ++
- Color [14]: Orange
- Coloration strength [14]: ++
- Growth ([14]; control C: ++): ++
- Color [15]: Orange
- Coloration strength [15]: ++
- Growth ([15]; control C: ++): ++
- Color [16]: Orange
- Coloration strength [16]: ++
- Growth ([16]; control C: ++): ++
- Color [17]: Orange
- Coloration strength [17]: ++
- Growth ([17]; control C: ++): ++
- Color [18]: Orange
- Coloration strength [18]: ++
- Growth ([18]; control C: ++): ++
- Color (E. coli 05 04 163): Orange
- Coloration strength (E. coli 05 04 163): ++
- Growth (E. coli 05 04 163; control C: ++): ++
